Assay results from BindingDB's records for PubMed 39128361 (Xi'an Jiaotong University).
pIC50: −log10 of the molar value.

Assay: Inhibition of pERK (unknown origin)

pIC50: 8.15
SMILES: CC(=O)N1CCN(c2ccc(Nc3nccc(-c4sc(C(C)C)nc4-c4cccc(NS(=O)(=O)c5ccccc5)c4)n3)cn2)CC1
